The record followed here is US12037344B2, “NLRP3 modulators” (INNATE TUMOR IMMUNITY, INC., priority 2018, dated 2024).

The target of one assay is T1, TLR8 (Homo sapiens, UniProt Q9NR97).
T1 construct: human HEK-Blue cells co-expressing a TLR7 or TLR8 gene
T1 sequence (Q9NR97 27-1041): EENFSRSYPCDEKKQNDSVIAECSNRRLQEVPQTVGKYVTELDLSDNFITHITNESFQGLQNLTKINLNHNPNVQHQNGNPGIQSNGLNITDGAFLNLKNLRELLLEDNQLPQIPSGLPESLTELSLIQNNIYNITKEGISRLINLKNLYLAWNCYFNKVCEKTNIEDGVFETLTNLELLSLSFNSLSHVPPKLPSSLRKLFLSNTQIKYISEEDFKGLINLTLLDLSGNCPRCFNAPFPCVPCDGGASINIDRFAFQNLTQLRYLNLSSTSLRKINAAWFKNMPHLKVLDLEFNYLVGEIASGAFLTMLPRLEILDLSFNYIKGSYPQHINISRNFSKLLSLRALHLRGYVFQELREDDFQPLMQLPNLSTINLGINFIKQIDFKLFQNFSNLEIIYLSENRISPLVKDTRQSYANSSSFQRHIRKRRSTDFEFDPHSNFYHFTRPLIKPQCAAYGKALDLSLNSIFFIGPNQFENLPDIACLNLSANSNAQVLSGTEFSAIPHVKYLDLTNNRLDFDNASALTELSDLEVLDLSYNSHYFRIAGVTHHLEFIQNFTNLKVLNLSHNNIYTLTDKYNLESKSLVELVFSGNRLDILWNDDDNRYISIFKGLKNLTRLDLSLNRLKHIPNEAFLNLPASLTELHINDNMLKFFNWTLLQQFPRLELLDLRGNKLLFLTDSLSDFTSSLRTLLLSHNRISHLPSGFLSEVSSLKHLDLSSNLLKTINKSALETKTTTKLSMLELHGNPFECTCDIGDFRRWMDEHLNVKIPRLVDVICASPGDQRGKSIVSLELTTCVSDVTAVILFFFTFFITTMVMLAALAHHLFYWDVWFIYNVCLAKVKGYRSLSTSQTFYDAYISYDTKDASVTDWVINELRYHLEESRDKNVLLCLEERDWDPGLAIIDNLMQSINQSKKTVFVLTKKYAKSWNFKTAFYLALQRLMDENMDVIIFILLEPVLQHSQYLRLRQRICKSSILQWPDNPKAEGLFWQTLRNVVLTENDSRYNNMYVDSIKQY
The experiment in a line: In vitro human TLR8 binding reporter assay (HEK-Blue, NF-kB/AP1-inducible SEAP). The following applies: read-out: TLR8 Agonist EC50. Format: cell-based. In a few lines:
(§1)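 EC50s come from NF-kB/AP1-driven SEAP secretion in HEK-Blue cells expressing TLR7 or TLR8, measured with Quanti-Blue after an 18 h compound incubation. Maximal response is defined by a 50 μM reference standard.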
In general terms: A reporter such as luciferase makes a cellular process visible.

The subject of another assay is THP-1 cells. The assay can be described thus: Measurement of IL-1β production, hTRF protocol (second alternative procedure), THP-1 cells. It counts as cell-based, human. The conditions noted are these: Homo sapiens, THP-1, IL-1β production, read-out: NLRP3 hILIB EC50. An outline of the steps:
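Compounds, dilution series starting at a final 10 μM, were incubated 2 hours at 37° C with PMA-differentiated THP-1 cells (50 ng/ml overnight; 50,000 cells/well, 2% FBS RPMI). Released IL-1β quantified in supernatant by hTRF kit with 1:40 antibody dilution, 4° C overnight, 665/615 nm ratio.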

A further assay has as its target T2, TLR7 (Homo sapiens, UniProt Q9NYK1).
T2 construct: human HEK-Blue cells co-expressing a TLR7 or TLR8 gene
T2 sequence (Q9NYK1 27-1049): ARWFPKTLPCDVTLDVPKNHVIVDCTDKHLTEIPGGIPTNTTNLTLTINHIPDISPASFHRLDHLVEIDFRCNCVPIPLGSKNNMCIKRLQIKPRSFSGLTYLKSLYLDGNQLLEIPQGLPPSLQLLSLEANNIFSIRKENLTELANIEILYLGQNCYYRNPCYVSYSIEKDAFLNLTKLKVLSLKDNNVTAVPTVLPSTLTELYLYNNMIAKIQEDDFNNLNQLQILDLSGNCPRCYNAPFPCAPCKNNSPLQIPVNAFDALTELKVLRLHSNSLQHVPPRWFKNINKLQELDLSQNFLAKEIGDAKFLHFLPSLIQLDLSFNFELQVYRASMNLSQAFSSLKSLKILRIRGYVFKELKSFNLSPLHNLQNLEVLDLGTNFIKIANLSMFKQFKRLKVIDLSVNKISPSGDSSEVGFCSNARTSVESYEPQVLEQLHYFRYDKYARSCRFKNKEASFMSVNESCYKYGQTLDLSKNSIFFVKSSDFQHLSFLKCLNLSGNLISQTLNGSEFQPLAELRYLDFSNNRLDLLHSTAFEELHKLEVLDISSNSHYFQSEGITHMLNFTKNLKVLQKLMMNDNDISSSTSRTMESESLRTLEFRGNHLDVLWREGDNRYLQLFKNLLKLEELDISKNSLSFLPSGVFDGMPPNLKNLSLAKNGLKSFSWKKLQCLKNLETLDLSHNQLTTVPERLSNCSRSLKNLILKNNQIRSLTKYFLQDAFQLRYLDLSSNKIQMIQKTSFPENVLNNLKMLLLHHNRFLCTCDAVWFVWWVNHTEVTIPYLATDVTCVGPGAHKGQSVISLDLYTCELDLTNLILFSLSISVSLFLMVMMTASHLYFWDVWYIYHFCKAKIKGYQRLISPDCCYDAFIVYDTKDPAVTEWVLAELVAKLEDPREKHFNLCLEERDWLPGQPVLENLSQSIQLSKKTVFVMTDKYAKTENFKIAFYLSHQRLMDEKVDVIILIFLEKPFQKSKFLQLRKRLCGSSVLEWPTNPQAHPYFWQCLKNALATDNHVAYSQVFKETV
The assay can be described thus: In vitro human TLR7 binding reporter assay (HEK-Blue, NF-kB/AP1-inducible SEAP). Format: cell-based. The conditions noted are these: read-out: TLR7 Agonist EC50. In a few lines:
as §1

Read-outs that look alike come from different tables or passages of the source.

Consider `CC(C)(C(=O)NC1CCC1)n1cc2c(N)nc3cc(-c4cc[nH]n4)ccc3c2n1` [Example 524], for which the figures for the half-maximal effective concentration (EC50) on TLR8 (activity range), in the assay on THP-1 cells (human cells) and at TLR7 (activity range) were > 100 µM, 2030 nM and > 100 µM, respectively.
As to `CC(C)(O)Cn1cc2c(N)nc3cc(-c4ccn[nH]4)ccc3c2n1` [Example 283], the EC50 at TLR8 (activity range class) was > 100 µM; in the assay with THP-1 cells (human) it was 120 nM; on TLR7 (activity range class), > 100 µM.
On to `Nc1nc2cc(-c3cc[nH]n3)ccc2c2cn(Cc3ccncc3)nc12` [Example 165], for which the EC50 on TLR8 (activity range class) is 20 to 100 µM; in the assay on THP-1 cells (human), 140 nM; on TLR7 (activity range class) it was > 100 µM.
On to `Nc1nc2cc(-c3cc[nH]n3)ccc2c2nn(CCCOC(F)(F)F)cc12` [Example 350], for which the results for the half-maximal effective concentration (EC50) at TLR8 (activity range class), with THP-1 cells (human) and on TLR7 (activity range class) were > 100 µM, 350 nM and > 100 µM, respectively.
With `Nc1nc2cc(-c3ccn[nH]3)ccc2c2cn(CCO)cc12` [Example 455], the results for the EC50 on TLR8 (activity range), in the assay on THP-1 cells (human cells) and on TLR7 (activity range) were > 100 µM, 220 nM and > 100 µM, respectively.
On to `Nc1nc2cc(-c3cc[nH]n3)ccc2c2nn(C[C@@H]3CC(F)(F)CN3)cc12` [Example 363], for which the figures for the EC50 at TLR8 (activity range class), in the assay with THP-1 cells (human) and on TLR7 (activity range class) were > 100 µM, 1840 nM and > 100 µM, respectively.
Take `CNC(=O)C1(Cn2cc3c(N)nc4cc(-c5ccn[nH]5)ccc4c3n2)CC1` [Example 608]: the EC50 was > 100 µM at TLR8 (activity range), 700 nM in the assay with THP-1 cells (human cells) and > 100 µM on TLR7 (activity range).

As usually defined, the EC50 is the concentration giving half of the maximal effect.
